Test results from patent US20090069181A1, “Product and Process for Treating Water Bodies, Sediments and Soils” (SOLVAY SA, priority 2006, published 2009).

Test system: blue green algae
Experiment: Pond treatment, algae control in a four-foot deep pond (Example 1)
Type: in vivo
Details: treated every two weeks for approximately 6 years during the warmer season
Source text: The solid form of this invention containing approximately 70% calcium peroxide was applied to the pond by spreading it over the surface at a rate of 10 lbs per acre foot.

O=S(=O)([O-])[O-].[Cu+2] [copper sulfate]
control of algae: control of algae was still difficult
